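Values below derive from 48-hour exposures of cells grown in 96-well plates, with endpoints linearly interpolated between the two concentrations bracketing the appropriate inhibition level. Abbreviation: GI50, concentration required for 50% inhibition of growth.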 Activity calls are given as the source filed them. Rule as the data show it: active = GI50 up to about 1.1 µM and inactive = higher.
Experiments:
Assay in all cases: NCI tumour cell line growth inhibition, 48 h
[1] = test system: 786-0
[2] = test system: A549
[3] = test system: BT-549
[4] = test system: HCC 2998
[5] = test system: HCT-116
[6] = test system: HOP-92
[7] = test system: HT-29
[8] = test system: Hs-578T
[9] = test system: IGROV-1
[10] = test system: KM12
[11] = test system: M14
[12] = test system: MDA-N
[13] = test system: NCI-H522
[14] = test system: OVCAR-5
[15] = test system: RPMI-8226
[16] = test system: SF-295
[17] = test system: SF-539
[18] = test system: CCRF-CEM
[19] = test system: HL-60

O=C(/C=C/c1ccc(Cl)cc1)Oc1ccc(C=C2CCC/C(=C\c3ccc(OC(=O)/C=C/c4ccc(Cl)cc4)cc3)C2=O)cc1
GI50 [1]: > 100 µM (inactive)
GI50 [2]: > 100 µM (inactive)
GI50 [3]: > 100 µM (inactive)
GI50 [4]: > 100 µM (inactive)
GI50 [5]: > 100 µM (inactive)
GI50 [6]: > 100 µM (inactive)
GI50 [7]: > 100 µM (inactive)
GI50 [8]: > 100 µM (inactive)
GI50 [9]: > 100 µM (inactive)
GI50 [10]: > 100 µM (inactive)
GI50 [11]: > 100 µM (inactive)
GI50 [12]: > 100 µM (inactive)
GI50 [13]: > 100 µM (inactive)
GI50 [14]: > 100 µM (inactive)
GI50 [15]: > 45.9 µM (inactive)
GI50 [16]: > 100 µM (inactive)
GI50 [17]: > 100 µM (inactive)

COC(=O)c1cc(/C=C/C(=O)Cc2ccccc2)cn1S(=O)(=O)c1ccccc1
GI50 [1]: > 100 µM (inactive)
GI50 [2]: > 100 µM (inactive)
GI50 [3]: > 100 µM (inactive)
GI50 [18]: > 100 µM (inactive)
GI50 [4]: > 100 µM (inactive)
GI50 [5]: > 100 µM (inactive)
GI50 [19]: > 100 µM (inactive)
GI50 [7]: > 100 µM (inactive)
GI50 [8]: > 100 µM (inactive)
GI50 [9]: > 100 µM (inactive)
GI50 [10]: > 100 µM (inactive)
GI50 [11]: > 100 µM (inactive)
GI50 [12]: > 100 µM (inactive)
GI50 [13]: > 100 µM (inactive)
GI50 [14]: > 100 µM (inactive)
GI50 [16]: > 100 µM (inactive)
GI50 [17]: > 100 µM (inactive)

C/C(=N\Nc1nc2ccccc2[nH]1)c1ccc2ccccc2n1
GI50 [1]: 1.9 µM (inactive)
GI50 [2]: 2.52 µM (inactive)
GI50 [3]: > 100 µM (inactive)
GI50 [18]: 1.05 µM (active)
GI50 [5]: 1.95 µM (inactive)
GI50 [19]: 1.8 µM (inactive)
GI50 [7]: 0.948 µM (active)
GI50 [8]: 10.8 µM (inactive)
GI50 [9]: 0.129 µM (active)
GI50 [10]: 2.08 µM (inactive)
GI50 [11]: 1.24 µM (inactive)
GI50 [12]: 3.97 µM (inactive)
GI50 [13]: 2.33 µM (inactive)
GI50 [14]: 2.25 µM (inactive)
GI50 [15]: 0.897 µM (active)
GI50 [16]: 2.49 µM (inactive)
GI50 [17]: 3.27 µM (inactive)

Nc1cc(CO)cc(Nc2nc3ccc(Cl)cc3c3[nH]c4ccccc4c23)c1
GI50 [1]: 1.98 µM (inactive)
GI50 [2]: 3.2 µM (inactive)
GI50 [3]: 10.9 µM (inactive)
GI50 [18]: 4.79 µM (inactive)
GI50 [5]: 3.34 µM (inactive)
GI50 [19]: 21.7 µM (inactive)
GI50 [6]: 2.43 µM (inactive)
GI50 [7]: 3.64 µM (inactive)
GI50 [8]: 5.43 µM (inactive)
GI50 [9]: 1.54 µM (inactive)
GI50 [10]: 4.98 µM (inactive)
GI50 [11]: 4.98 µM (inactive)
GI50 [12]: 6.65 µM (inactive)
GI50 [13]: 2.79 µM (inactive)
GI50 [14]: 3.85 µM (inactive)
GI50 [15]: 2.96 µM (inactive)
GI50 [16]: 3.56 µM (inactive)
GI50 [17]: 3.34 µM (inactive)

CC1(C)C=Cc2c(cc3oc4ccc5c(c4c(=O)c3c2O)C=CC(C)(C)O5)O1
GI50 [1]: > 100 µM (inactive)
GI50 [2]: > 100 µM (inactive)
GI50 [3]: > 100 µM (inactive)
GI50 [18]: > 100 µM (inactive)
GI50 [4]: > 100 µM (inactive)
GI50 [5]: > 100 µM (inactive)
GI50 [6]: > 100 µM (inactive)
GI50 [7]: > 100 µM (inactive)
GI50 [8]: > 100 µM (inactive)
GI50 [9]: > 100 µM (inactive)
GI50 [10]: > 100 µM (inactive)
GI50 [11]: > 100 µM (inactive)
GI50 [12]: > 100 µM (inactive)
GI50 [13]: > 100 µM (inactive)
GI50 [14]: > 100 µM (inactive)
GI50 [15]: > 100 µM (inactive)
GI50 [16]: > 100 µM (inactive)
GI50 [17]: > 100 µM (inactive)

CC(Nc1cccc(Cl)c1)c1ccncc1 (centres undefined)
GI50 [1]: > 100 µM (inactive)
GI50 [2]: > 100 µM (inactive)
GI50 [3]: > 100 µM (inactive)
GI50 [18]: > 100 µM (inactive)
GI50 [5]: 70.8 µM (inactive)
GI50 [6]: 73.1 µM (inactive)
GI50 [7]: > 100 µM (inactive)
GI50 [8]: > 100 µM (inactive)
GI50 [9]: > 100 µM (inactive)
GI50 [10]: > 100 µM (inactive)
GI50 [11]: > 100 µM (inactive)
GI50 [12]: > 100 µM (inactive)
GI50 [13]: 83.6 µM (inactive)
GI50 [14]: 51.5 µM (inactive)
GI50 [15]: 75.2 µM (inactive)
GI50 [16]: > 100 µM (inactive)
GI50 [17]: > 100 µM (inactive)

O=C(NNC(=O)c1ccncc1)c1ccncc1
GI50 [1]: > 100 µM (inactive)
GI50 [2]: > 100 µM (inactive)
GI50 [3]: > 100 µM (inactive)
GI50 [18]: > 100 µM (inactive)
GI50 [5]: > 100 µM (inactive)
GI50 [19]: > 100 µM (inactive)
GI50 [6]: > 100 µM (inactive)
GI50 [7]: > 100 µM (inactive)
GI50 [8]: > 100 µM (inactive)
GI50 [9]: > 100 µM (inactive)
GI50 [10]: > 100 µM (inactive)
GI50 [11]: > 100 µM (inactive)
GI50 [12]: > 100 µM (inactive)
GI50 [13]: > 100 µM (inactive)
GI50 [14]: > 100 µM (inactive)
GI50 [15]: > 100 µM (inactive)
GI50 [16]: > 100 µM (inactive)

COc1cc(OCCN(C)C)c2[nH]c(C(=O)N3CC(CCl)c4ccc(N)cc43)cc2c1 (centres undefined)
GI50 [1]: 0.0202 µM (active)
GI50 [2]: 0.0377 µM (active)
GI50 [3]: 0.351 µM (active)
GI50 [18]: 0.0199 µM (active)
GI50 [4]: 0.0265 µM (active)
GI50 [5]: 0.0238 µM (active)
GI50 [6]: 0.0596 µM (active)
GI50 [7]: < 0.0246 µM (active)
GI50 [8]: 0.361 µM (active)
GI50 [9]: 0.0148 µM (active)
GI50 [10]: 0.0324 µM (active)
GI50 [11]: 0.0632 µM (active)
GI50 [12]: 0.0643 µM (active)
GI50 [13]: 0.0139 µM (active)
GI50 [14]: 0.0656 µM (active)
GI50 [15]: 0.0358 µM (active)
GI50 [16]: 0.0369 µM (active)
GI50 [17]: 0.0748 µM (active)

Reference: ChEMBL document CHEMBL1201862, “PubChem BioAssay data set” (2004)
